# Test results as given in US8119632B2, “Bicyclic amide derivatives for enhancing glutamatergic synaptic responses” (Cortex Pharmaceuticals, Inc., priority 2007, dated 2012).
# Columns and labels:
# AMPA receptor = assay: In vivo electrophysiology: amplitude of field EPSP in dentate gyrus of anesthetized animals; parameters: species or system rat; settings: for In vivo Electrophysiology: % increase in the amplitude of the field EPSP in the dentate gyrus of rat: 10 mpk i.p.
# Method: (§1) The electrophysiological effects of the invention compounds were tested in vivo in anesthetized animals according to the following procedures. Animals are maintained under anesthesia by phenobarbital administered using a Hamilton syringe pump. Stimulating and recording electrodes are inserted into the perforant path and dentate gyrus of the hippocampus, respectively. Once electrodes are implanted, a stable baseline of evoked responses are elicited using single monophasic pulses (100 μs pulse duration) delivered at 3/min to the stimulating electrode. Field EPSPs are monitored until a stable baseline is achieved (about 20-30 min), after which a solution of test compound is injected intraperitoneally and evoked field potentials are recorded. Evoked potentials were recorded for approximately 2 h following drug administration or until the amplitude of the field EPSP returns to baseline. In the latter instance, it is common that an iv administration is also carried out with an appropriate dose of the same test compound. Invention compounds were assayed in the in vivo electrophysiology assay described above and data for representative test compounds is shown in the Table.
# The electrophysiological effects of invention compounds were tested in vivo in anesthetized animals according to the following procedures.
# as §1, with “Animals” for “The electrophysiological effects of the invention compounds were tested in vivo in anesthetized animals according to the following procedures. Animals”, “are” for “were”, “compound.” for “compound. Invention compounds were assayed in the in vivo electrophysiology assay described above and data for representative test compounds is shown in the Table.”
SMILES,"increase in amplitude of the field EPSP (AMPA receptor; rat dentate gyrus, 50 mg/kg i.p.) [%]",In vivo Electrophysiology: % increase in the amplitude of the field EPSP in the dentate gyrus of rat (AMPA receptor) [%],melting point [°C]
"O=C(c1ccc2nccnc2c1)N1CCCCC1 [CX516, 1-(quinoxalin-6-ylcarbonyl)piperdine, reference compound]",9,–,–
"O=C(c1ccc2nonc2c1)N1C2CCC1COC2 [Example 1, [2,1,3]-Benzoxadiazol-5-yl(3-oxa-8-azabicyclo[3.2.1]oct-8-yl)methanone]",–,17,139 to 140
"O=C(c1ccc2nonc2c1)N1C2CCCC1COC2 [Example 2, [2,1,3]-Benzoxadiazol-5-yl(3-oxa-9-azabicyclo[3.3.1]non-9-yl)methanone]",–,16,128 to 130
"O=C(c1ccc2nonc2c1)N1C2COCC1COC2 [Example 3, [2,1,3]-Benzoxadiazol-5-yl(3,7-dioxa-9-azabicyclo[3.3.1]non-9-yl)methanone]",–,15,197 to 199
